Measurements reported in US8802597B2, “Herbicidal pyrimidines” (E I du Pont de Nemours and Company, priority 2003, dated 2014).
Like-named read-outs stand apart in the source and are kept apart here.

How the values were obtained:
Format in all cases: in vivo
wild oat (Avena fatua) = assay: Test B postemergence; conditions: Avena fatua, post-emergence, scale 0 to 100 (0 no effect, 100 complete control), read-out: Oat, Wild plant response rating
Method in brief: (§1)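 Visual rating, 0 (no effect) to 100 (complete control) versus controls, taken 13–15 days after treatment in greenhouse. Compounds formulated in non-phytotoxic solvent plus surfactant; pre: sprayed after seeding; post: plants at 1- to 4-leaf stage, 2–18 cm.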

[1] = system: blackgrass (Alopecurus myosuroides); assay: Test B postemergence; conditions: Alopecurus myosuroides, post-emergence, scale 0 to 100 (0 no effect, 100 complete control), read-out: Blackgrass plant response rating
Method in brief: as §1

rice (Oryza sativa) = assay: Test B flooded paddy test; conditions: Oryza sativa, Flood, scale 0 to 100, read-out: Plant response rating, Rice
Method in brief: (§2)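 Rice, umbrella sedge, duck salad and barnyardgrass grown to 2-leaf stage under flooded paddy conditions and treated with formulated test chemicals. Kept in greenhouse 13–15 days, then visually rated against untreated controls on a 0–100 scale (0 no effect, 100 complete control).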

[2] = system: duck salad (Heteranthera limosa); assay: Test B flooded paddy test; conditions: Heteranthera limosa, Flood, scale 0 to 100, read-out: Plant response rating, Ducksalad
Method in brief: as §2

[3] = system: umbrella sedge (Cyperus difformis); assay: Test B flooded paddy test; conditions: Cyperus difformis, Flood, scale 0 to 100, read-out: Plant response rating, Sedge, Umbrella
Method in brief: as §2

[4] = system: barnyardgrass (Echinochloa crus-galli); assay: Test B flooded paddy test; conditions: Echinochloa crus-galli, Flood, scale 0 to 100, read-out: Plant response rating, Barnyardgrass
Method in brief: as §2

[5] = system: crabgrass (Digitaria sanguinalis); assay: Test B pre/postemergence; conditions: Digitaria sanguinalis; for pest or weed control at 62 g/ha: 62 g ai/ha; for pest or weed control at 125 g/ha: 125 g ai/ha
Method in brief: as §1

[6] = system: wheat (Triticum aestivum); assay: Test B pre/postemergence; conditions: Triticum aestivum, scale 0 to 100 (0 no effect, 100 complete control); for plant injury at 62 g/ha: 62 g ai/ha; for plant injury at 125 g/ha: 125 g ai/ha
Method in brief: as §1

[7] = system: giant foxtail (Setaria faberii); assay: Test B pre/postemergence; conditions: Setaria faberi; for pest or weed control at 125 g/ha: 125 g ai/ha; for pest or weed control at 62 g/ha: 62 g ai/ha
Method in brief: as §1

[8] = system: pigweed (Amaranthus retroflexus); assay: Test B pre/postemergence; conditions: Amaranthus retroflexus; for pest or weed control at 62 g/ha: 62 g ai/ha; for pest or weed control at 125 g/ha: 125 g ai/ha
Method in brief: as §1

[9] = system: cocklebur (Xanthium strumarium); assay: Test B pre/postemergence; conditions: Xanthium strumarium; for pest or weed control at 62 g/ha: 62 g ai/ha; for pest or weed control at 125 g/ha: 125 g ai/ha
Method in brief: as §1

[10] = system: Surinam grass (Brachiaria decumbens); assay: Test B pre/postemergence; conditions: Urochloa decumbens; for pest or weed control at 125 g/ha: 125 g ai/ha; for pest or weed control at 62 g/ha: 62 g ai/ha
Method in brief: as §1

corn (Zea mays) = assay: Test B pre/postemergence; conditions: Zea mays
Method in brief: as §1

[11] = system: barnyardgrass (Echinochloa crus-galli); assay: Test B pre/postemergence; conditions: Echinochloa crus-galli, scale 0 to 100 (0 no effect, 100 complete control); for pest or weed control at 62 g/ha: 62 g ai/ha; for pest or weed control at 125 g/ha: 125 g ai/ha
Method in brief: as §1

[12] = system: lambsquarters (Chenopodium album); assay: Test B pre/postemergence; conditions: Chenopodium album; for pest or weed control at 62 g/ha: 62 g ai/ha; for pest or weed control at 125 g/ha: 125 g ai/ha
Method in brief: as §1

[13] = system: morningglory (Ipomoea coccinea); assay: Test B pre/postemergence; conditions: Ipomoea; for pest or weed control at 62 g/ha: 62 g ai/ha; for pest or weed control at 125 g/ha: 125 g ai/ha
Method in brief: as §1

[14] = system: velvetleaf (Abutilon theophrasti); assay: Test B pre/postemergence; conditions: Abutilon theophrasti; for pest or weed control at 62 g/ha: 62 g ai/ha; for pest or weed control at 125 g/ha: 125 g ai/ha
Method in brief: as §1

[15] = post-emergence, Postemergence, scale 0 to 100 (0 no effect, 100 complete control), read-out: Crabgrass plant response rating
[16] = post-emergence, Postemergence, read-out: Wheat plant response rating
[17] = pre-emergence, Preemergence, read-out: Plant response rating, Wheat
[18] = post-emergence, Postemergence, scale 0 to 100 (0 no effect, 100 complete control), read-out: Foxtail, Giant plant response rating
[19] = post-emergence, Postemergence, scale 0 to 100 (0 no effect, 100 complete control), read-out: Pigweed plant response rating
[20] = post-emergence, Postemergence, scale 0 to 100 (0 no effect, 100 complete control), read-out: Cocklebur plant response rating
[21] = post-emergence, Postemergence, scale 0 to 100 (0 no effect, 100 complete control), read-out: Surinam Grass plant response rating
[22] = post-emergence, Postemergence, read-out: Barnyardgrass plant response rating
[23] = pre-emergence, Preemergence, read-out: Plant response rating, Barnyardgrass
[24] = post-emergence, Postemergence, scale 0 to 100 (0 no effect, 100 complete control), read-out: Lambsquarters plant response rating
[25] = post-emergence, Postemergence, scale 0 to 100 (0 no effect, 100 complete control), read-out: Morningglory plant response rating
[26] = post-emergence, Postemergence, scale 0 to 100 (0 no effect, 100 complete control), read-out: Velvetleaf plant response rating

SMILES: Nc1nc(C2CC2)nc(C(=O)OCc2ccccc2)c1Cl [Compound 78, phenylmethyl 6-amino-5-chloro-2-cyclopropyl-4-pyrimidinecarboxylate]
- pest or weed control at 62 g/ha (wild oat (Avena fatua); 62 g ai/ha): 50%
- pest or weed control at 125 g/ha (wild oat (Avena fatua); 125 g ai/ha): 70%
- pest or weed control at 62 g/ha ([1]; 62 g ai/ha): 20%
- pest or weed control at 125 g/ha ([1]; 125 g ai/ha): 40%
- plant injury at 125 g/ha (rice (Oryza sativa); 125 g ai/ha): 20%
- plant injury at 500 g/ha (rice (Oryza sativa); 500 g ai/ha): 40%
- pest or weed control at 125 g/ha ([2]; 125 g ai/ha): 20%
- pest or weed control at 500 g/ha ([2]; 500 g ai/ha): 70%
- pest or weed control at 125 g/ha ([3]; 125 g ai/ha): 10%
- pest or weed control at 500 g/ha ([3]; 500 g ai/ha): 50%
- pest or weed control at 125 g/ha ([4]; 125 g ai/ha): 0%
- pest or weed control at 500 g/ha ([4]; 500 g ai/ha): 40%
- pest or weed control at 62 g/ha [5, 15]: 60%
- pest or weed control at 125 g/ha [5, 15]: 70%
- pest or weed control at 62 g/ha ([5]; pre-emergence, Preemergence, scale 0 to 100, 0 no effect, 100 complete control, read-out: Plant response rating, Crabgrass): 80%
- pest or weed control at 125 g/ha ([5]; pre-emergence, Preemergence, scale 0 to 100 (0 no effect, 100 complete control), read-out: Plant response rating, Crabgrass): 90%
- plant injury at 62 g/ha [6, 16]: 50%
- plant injury at 125 g/ha [6, 16]: 70%
- plant injury at 62 g/ha [6, 17]: 30%
- plant injury at 125 g/ha [6, 17]: 70%
- pest or weed control at 125 g/ha [7, 18]: 70%
- pest or weed control at 62 g/ha [7, 18]: 60%
- pest or weed control at 125 g/ha ([7]; pre-emergence, Preemergence, scale 0 to 100 (0 no effect, 100 complete control), read-out: Plant response rating, Foxtail, Giant): 70%
- pest or weed control at 62 g/ha ([7]; pre-emergence, Preemergence, scale 0 to 100, 0 no effect, 100 complete control, read-out: Plant response rating, Foxtail, Giant): 20%
- pest or weed control at 62 g/ha [8, 19]: 80%
- pest or weed control at 125 g/ha [8, 19]: 100%
- pest or weed control at 62 g/ha ([8]; pre-emergence, Preemergence, scale 0 to 100, 0 no effect, 100 complete control, read-out: Plant response rating, Pigweed): 100%
- pest or weed control at 125 g/ha ([8]; pre-emergence, Preemergence, scale 0 to 100 (0 no effect, 100 complete control), read-out: Plant response rating, Pigweed): 100%
- pest or weed control at 62 g/ha [9, 20]: 100%
- pest or weed control at 125 g/ha [9, 20]: 100%
- pest or weed control at 62 g/ha ([9]; pre-emergence, Preemergence, scale 0 to 100, 0 no effect, 100 complete control, read-out: Plant response rating, Cocklebur): 80%
- pest or weed control at 125 g/ha ([9]; pre-emergence, Preemergence, scale 0 to 100 (0 no effect, 100 complete control), read-out: Plant response rating, Cocklebur): 100%
- pest or weed control at 125 g/ha [10, 21]: 80%
- pest or weed control at 62 g/ha [10, 21]: 60%
- pest or weed control at 125 g/ha ([10]; pre-emergence, Preemergence, scale 0 to 100 (0 no effect, 100 complete control), read-out: Plant response rating, Surinam Grass): 90%
- pest or weed control at 62 g/ha ([10]; pre-emergence, Preemergence, scale 0 to 100, 0 no effect, 100 complete control, read-out: Plant response rating, Surinam Grass): 60%
- plant injury at 62 g/ha (corn (Zea mays); post-emergence, Postemergence, 62 g ai/ha, scale 0 to 100 (0 no effect, 100 complete control), read-out: Corn plant response rating): 40%
- plant injury at 125 g/ha (corn (Zea mays); post-emergence, Postemergence, 125 g ai/ha, scale 0 to 100 (0 no effect, 100 complete control), read-out: Corn plant response rating): 80%
- Corn plant response rating (crop injury, 0 = no effect, 100 = complete kill) at 62 g/ha (corn (Zea mays); pre-emergence, Preemergence, 62 g ai/ha, scale 0 to 100, 0 no effect, 100 complete control): 30%
- Corn plant response rating (crop injury, 0 = no effect, 100 = complete kill) at 125 g/ha (corn (Zea mays); pre-emergence, Preemergence, 125 g ai/ha, scale 0 to 100 (0 no effect, 100 complete control)): 70%
- pest or weed control at 62 g/ha [11, 22]: 80%
- pest or weed control at 125 g/ha [11, 22]: 90%
- pest or weed control at 62 g/ha [11, 23]: 60%
- pest or weed control at 125 g/ha [11, 23]: 70%
- pest or weed control at 62 g/ha [12, 24]: 100%
- pest or weed control at 125 g/ha [12, 24]: 100%
- pest or weed control at 62 g/ha ([12]; pre-emergence, Preemergence, scale 0 to 100, 0 no effect, 100 complete control, read-out: Plant response rating, Lambsquarters): 90%
- pest or weed control at 125 g/ha ([12]; pre-emergence, Preemergence, scale 0 to 100 (0 no effect, 100 complete control), read-out: Plant response rating, Lambsquarters): 100%
- pest or weed control at 62 g/ha [13, 25]: 100%
- pest or weed control at 125 g/ha [13, 25]: 100%
- pest or weed control at 62 g/ha ([13]; pre-emergence, Preemergence, scale 0 to 100, 0 no effect, 100 complete control, read-out: Plant response rating, Morningglory): 80%
- pest or weed control at 125 g/ha ([13]; pre-emergence, Preemergence, scale 0 to 100 (0 no effect, 100 complete control), read-out: Plant response rating, Morningglory): 100%
- pest or weed control at 62 g/ha [14, 26]: 70%
- pest or weed control at 125 g/ha [14, 26]: 80%
- pest or weed control at 62 g/ha ([14]; pre-emergence, Preemergence, scale 0 to 100, 0 no effect, 100 complete control, read-out: Plant response rating, Velvetleaf): 70%
- pest or weed control at 125 g/ha ([14]; pre-emergence, Preemergence, scale 0 to 100 (0 no effect, 100 complete control), read-out: Plant response rating, Velvetleaf): 90%
